Data as given in EP0462621A2, “Use of particular compounds for manufacture of pharmaceutical formulations for treatment against various parasites, mycoplasmas, other indications and other infections” (Prendergast, Patrick Thomas, priority 1990, dated 1991).

Tests used:
L donovani = test: Amastigotes (AM) in mouse or human macrophages (mos), in-vitro; format: cell-based; conditions: Ld., Amastigote
From the text: (§1) Amastigotes of Leishmania can be cultivated in a wide range of mammalian cells, some of which may be used in in-vitro screens. These include (1) a Sticker dog sarcoma (fibroblast) cell line, (2) transformed rodent macrophage cell lines, (3) primary isolated mouse peritoneal macrophages (MP mo), and (4) human monocyte-derived macrophages (HM mo). The methods are similar for all models. Amastigote or promastigote infected cells are maintained in a medium containing the drug for 4-7 days, at 37 C for L. donovani and 33-35 C for L. major and L. mexicana. Drug activity is then assessed by counting (I) the number of infected host cells and/or (II) the number of amastigotes/100 host cells.
(§2) In-vitro and in-vivo models were used to test activities of a selection of many compounds. Those activities are summarized in Tables 1-3, showing variation between systems and species. Activities measured in the MP mo and HM mo models have shown the best correlation with results obtained in hamster and mouse models.

L major/L mexicana [1] = test: as above; format: cell-based; conditions: Lm., Amastigote
From the text: as §1, §2

L major/L mexicana [2] = test: Amastigote-promastigote (AM-PRO) transformation, in-vitro; format: cell-based; conditions: Lm.
[3] = test system: T.b. brucei, T.b. gambiense and T.b. rhodesiense; test: African trypanosomiasis mouse model, in-vivo
Description: Primary screening for new trypanocides has made extensive use of rodent systems, in which host survival time is a simple indicator of drug activity. In-vitro screens have used a variety of trypomastigote types (see Table 3, below). […] Most early in-vitro screens employed a short test in which bloodstream trypomastigotes were isolated from an infected rodent and maintained for up to 24 h in a simple drug-containing media. Two significant modifications of this technique include maintaining isolated bloodstream trypomastigotes in drug-containing media for 3-4 hours at 37° C in micro-titre plates and their subsequent viability assessed by the uptake of radiolabelled precursors or motility and infectivity to mice.
as §2

HIV = HIV production from H9 cells persistently infected with HIV, RT activity; format: cell-based
Description: To examine the effect of IPA on the production of HIV-1 in H9 cells persistently infected with HIV-1, 5x10^6 HIV-1-infected H9 cells were incubated in the absence or presence of IPA. Every 4-5 days, two thirds of the total cells were removed and medium was changed. New medium with or without drug was added to bring up to the original volume. At days indicated, culture supernatant was withdrawn and tested for the production of HIV-1 by the RT activity. A 20,000 cpm or more TCA insoluble radioactivity per millilitre of supernatant was considered positive in the RT assay. Results

H9-HIV-1 cells = test: Cytotoxicity in persistently infected H9-HIV-1 cells, viable cell number; format: cell-based, human; conditions: 30 u.M and lower; up to 30 days
CAEV = test: Experiment la(c): Himalayan Tahr ovary cells, CAEV, p28 radioimmunoassay; format: cell-based, caprine arthritis encephalitis virus (CAEV); conditions: as read from Figure 15
From the text: A procedure similar to that followed in Experiment la (a) was followed using Himalayan Tahr ovary cells exposed to caprine arthritis encephalitis virus (CAEV), a lentivirus related to HIV-1 which causes leukoen- cephalitis and arthritis in goats. A radioimmunoassay to detect CAEV p28 was used to determine the presence of the virus.

[4] = Solubility of IPA in water; format: physicochemical
cytomegilovirus = test: M413 cells, CMV; format: cell-based, cytomegalovirus (CMV)
Description: Confluent monolayers of M413 cells (a type of dipliod human fibroblast cells) in 48 well microtiter plates were used. They were grown in Dulbecco's MEM (minimum essential medium) supplemented with 10% fetal bovine serum and 50 ug/ml gentamicin.
Stock cytomegalovirus (CMV) was diluted in a series of 10-fold dilutions in the above medium, and […] amounts were added to the wells of the microtiter plates and allowed to absorb virus for 90 minutes at 37 °C.
Unabsorbed virus was removed by aspiration and 0.5 ml of medium containing dilutions of drug was added to duplicate wells at each concentration of virus.
After incubating for 5 days, fresh medium was added to each well, no additional drug being included, and the plates were scored for cytopathic effects the next day. The viruses produce characteristic enlarged rounded cells in a cellular background that is completely devoid of such cells.
The data were expressed as the reciprocal of the greatest dilution producing any of the characteristic rounded cells (the "titer"), and the percent inhibition was calculated by comparing the experimental titer with the control titer, with intermediate results interpreted as those of Experiment la(a).
The procedure described for Experiment la(j) was followed with cytomegalovirus (CMV) substituted for MAB to HSV-1.

With CC(C)=CCNc1ncnc2c1ncn2[C@@H]1O[C@H](CO)[C@@H](O)[C@H]1O [IPA, N^6-(Δ^2-isopentenyl) adenosine] as the molecule, how does the “Activity, AM in mouse or human mos” value (L donovani) read?
The value was “+ +”.

What about the “Activity, AM in mouse or human mos” value (L major/L mexicana [1]) of the same molecule?
Its value is “+ +”.

What about the “Activity, AM-PRO transform-ation” value (L major/L mexicana [2]) of the same molecule?
The value was “+ +”.

And the “activity, mouse model” value [3]?
The value was “+ +”.

And the “HIV PRODUCTION RT ACTIVITY cpm/ml” value (HIV; DRUG CONCENTRATION 3.75 (unit not given), 15 DAYS p.d., without drug 3 x 10^5)?
Its value is 2.3 x 10^5 cpm/ml.

And the “HIV PRODUCTION RT ACTIVITY cpm/ml” value (HIV; DRUG CONCENTRATION 3.75 (unit not given), 25 DAYS p.d., without drug 1.1 x 10^6)?
The value was 1.2 x 10^5 cpm/ml.

And the “HIV PRODUCTION RT ACTIVITY cpm/ml” value (HIV; DRUG CONCENTRATION 7.5 (unit not given), 15 DAYS p.d., without drug 3 x 10^5)?
Its value is 2.9 x 10^5 cpm/ml.

And the “HIV PRODUCTION RT ACTIVITY cpm/ml” value (HIV; DRUG CONCENTRATION 7.5 (unit not given), 25 DAYS p.d., without drug 1.1 x 10^6)?
The value was 3.2 x 10^5 cpm/ml.

And the “HIV PRODUCTION RT ACTIVITY cpm/ml” value (HIV; DRUG CONCENTRATION 15 (unit not given), 15 DAYS p.d., without drug 3 x 10^5)?
The value was 2.3 x 10^5 cpm/ml.

And the “HIV PRODUCTION RT ACTIVITY cpm/ml” value (HIV; DRUG CONCENTRATION 15 (unit not given), 25 DAYS p.d., without drug 1.1 x 10^6)?
Its value is 3.6 x 10^5 cpm/ml.

What about the “HIV PRODUCTION RT ACTIVITY cpm/ml” value (HIV; DRUG CONCENTRATION 30 (unit not given), 15 DAYS p.d., without drug 3 x 10^5) of the same molecule?
Its value is 2.9 x 10^5 cpm/ml.

What about the “HIV PRODUCTION RT ACTIVITY cpm/ml” value (HIV; DRUG CONCENTRATION 30 (unit not given), 25 DAYS p.d., without drug 1.1 x 10^6) of the same molecule?
Its value is 2.5 x 10^5 cpm/ml.

And the “cytotoxicity, viable cell number” value (H9-HIV-1 cells)?
Its value is “No cytotoxicity”.

What about the IC50 (CAEV) of the same molecule?
Its IC50 is 8 µM.

What about the IC90 (CAEV) of the same molecule?
The IC90 was 30 µM.

And the solubility in water [4]?
The solubility in water was “does not readily dissolve in water”.

And the “levels of cytomegilovirus in cells in-vitro” value (cytomegilovirus)?
The value was “reduces”.
